Reference: ChEMBL document CHEMBL1909294, “Translating clinical findings into knowledge in drug safety evaluation--drug induced liver injury prediction system (DILIps)” (PLoS Comput Biol, 2011)

What was measured:
Hepatotoxicity [1] = test system: Hepatotoxicity;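 for HepSE bilirubinemia: bilirubinemia hepatic side effect score drawn from the DILIps training data, a prediction system for drug-induced liver injury; call rule not given here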;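 for HepSE cholecystitis: Cholecystitis-related hepatic side effect score drawn from the DILIps (drug-induced liver injury prediction) training data set; call rule not given here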;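 for HepSE cholelithiasis: hepatic side effect score for cholelithiasis, drawn from the DILIps training data for predicting drug-induced liver injury; call rule not given here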;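 for HepSE cirrhosis: cirrhosis hepatic side effect score taken from the DILIps (drug-induced liver injury prediction) training set; call rule not given here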;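 for HepSE elevated liver function tests: hepatic side effect score for raised liver function tests, as recorded in the DILIps training set used for predicting drug-induced liver injury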; for HepSE hepatic failure: call rule not given here;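 for HepSE hepatomegaly: hepatic side effect score for hepatomegaly, taken from the training set of the DILIps drug-induced liver injury prediction system; call rule not given here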
Hepatotoxicity [2] = test system: Hepatotoxicity; remark: listed apart in the source;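 for HepSE bilirubinemia: bilirubinemia hepatic side effect score drawn from the DILIps training data, a prediction system for drug-induced liver injury; call rule not given here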;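 for HepSE cholecystitis: Cholecystitis-related hepatic side effect score drawn from the DILIps (drug-induced liver injury prediction) training data set; call rule not given here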;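 for HepSE cholelithiasis: hepatic side effect score for cholelithiasis, drawn from the DILIps training data for predicting drug-induced liver injury; call rule not given here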;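 for HepSE cirrhosis: cirrhosis hepatic side effect score taken from the DILIps (drug-induced liver injury prediction) training set; call rule not given here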;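 for HepSE elevated liver function tests: hepatic side effect score for raised liver function tests, as recorded in the DILIps training set used for predicting drug-induced liver injury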; for HepSE hepatic failure: call rule not given here
Hepatotoxicity [3] = test system: Hepatotoxicity; remark: listed apart in the source;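 for HepSE bilirubinemia: bilirubinemia hepatic side effect score drawn from the DILIps training data, a prediction system for drug-induced liver injury; call rule not given here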;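 for HepSE cholecystitis: Cholecystitis-related hepatic side effect score drawn from the DILIps (drug-induced liver injury prediction) training data set; call rule not given here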;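 for HepSE cholelithiasis: hepatic side effect score for cholelithiasis, drawn from the DILIps training data for predicting drug-induced liver injury; call rule not given here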;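 for HepSE cirrhosis: cirrhosis hepatic side effect score taken from the DILIps (drug-induced liver injury prediction) training set; call rule not given here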;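 for HepSE elevated liver function tests: hepatic side effect score for raised liver function tests, as recorded in the DILIps training set used for predicting drug-induced liver injury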; for HepSE hepatic failure: call rule not given here
Hepatotoxicity [4] = test system: Hepatotoxicity; remark: listed apart in the source;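 for HepSE bilirubinemia: bilirubinemia hepatic side effect score drawn from the DILIps training data, a prediction system for drug-induced liver injury; call rule not given here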;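 for HepSE cholecystitis: Cholecystitis-related hepatic side effect score drawn from the DILIps (drug-induced liver injury prediction) training data set; call rule not given here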;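 for HepSE cholelithiasis: hepatic side effect score for cholelithiasis, drawn from the DILIps training data for predicting drug-induced liver injury; call rule not given here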;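 for HepSE cirrhosis: cirrhosis hepatic side effect score taken from the DILIps (drug-induced liver injury prediction) training set; call rule not given here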;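 for HepSE elevated liver function tests: hepatic side effect score for raised liver function tests, as recorded in the DILIps training set used for predicting drug-induced liver injury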; for HepSE hepatic failure: call rule not given here
Hepatotoxicity [5] = test system: Hepatotoxicity; remark: listed apart in the source; for HepSE hepatic failure: call rule not given here
Hepatotoxicity [6] = test system: Hepatotoxicity; remark: listed apart in the source; for HepSE hepatic failure: call rule not given here
Hepatotoxicity [7] = test system: Hepatotoxicity; remark: listed apart in the source
Hepatotoxicity [8] = test system: Hepatotoxicity; remark: listed apart in the source
Hepatotoxicity [9] = test system: Hepatotoxicity; remark: listed apart in the source
Hepatotoxicity [10] = test system: Hepatotoxicity; remark: listed apart in the source
Hepatotoxicity [11] = test system: Hepatotoxicity; remark: listed apart in the source
Hepatotoxicity [12] = test system: Hepatotoxicity; remark: listed apart in the source
Hepatotoxicity [13] = test system: Hepatotoxicity; remark: listed apart in the source
Hepatotoxicity [14] = test system: Hepatotoxicity; remark: listed apart in the source

CN1CCN(CCCN2c3ccccc3Sc3ccc(C(F)(F)F)cc32)CC1 [TRIFLUOPERAZINE]
HepSE_bilirubinemia (Hepatotoxicity [1]): 0 | HepSE_cholecystitis (Hepatotoxicity [2]): 0 | HepSE_cholelithiasis (Hepatotoxicity [3]): 0 | HepSE_cirrhosis (Hepatotoxicity [4]): 0 | HepSE_elevated liver function tests (Hepatotoxicity [5]): 0 | HepSE_hepatic failure (Hepatotoxicity [6]): 0 | HepSE_hepatic necrosis (Hepatotoxicity [7]): 0 | HepSE_hepatitis (Hepatotoxicity [8]): 0 | HepSE_hepatomegaly (Hepatotoxicity [9]): 0 | HepSE_jaundice (Hepatotoxicity [10]): 1 | HepSE_liver disease (Hepatotoxicity [11]): 0 | HepSE_liver fatty (Hepatotoxicity [12]): 0 | HepSE_liver function tests abnormal (Hepatotoxicity [13]): 0 | HepSE_Combined Scores (Hepatotoxicity [14]): 1

O=c1[nH]c(=O)n([C@H]2C[C@H](O)[C@@H](CO)O2)cc1C(F)(F)F [TRIFLURIDINE]
HepSE_bilirubinemia (Hepatotoxicity [1]): 0 | HepSE_cholecystitis (Hepatotoxicity [2]): 0 | HepSE_cholelithiasis (Hepatotoxicity [3]): 0 | HepSE_cirrhosis (Hepatotoxicity [4]): 0 | HepSE_elevated liver function tests (Hepatotoxicity [5]): 0 | HepSE_hepatic failure (Hepatotoxicity [6]): 0 | HepSE_hepatic necrosis (Hepatotoxicity [7]): 0 | HepSE_hepatitis (Hepatotoxicity [8]): 0 | HepSE_hepatomegaly (Hepatotoxicity [9]): 0 | HepSE_jaundice (Hepatotoxicity [10]): 0 | HepSE_liver disease (Hepatotoxicity [11]): 0 | HepSE_liver fatty (Hepatotoxicity [12]): 0 | HepSE_liver function tests abnormal (Hepatotoxicity [13]): 0 | HepSE_Combined Scores (Hepatotoxicity [14]): 0

OC(CCN1CCCCC1)(c1ccccc1)C1CCCCC1 (configuration not stated) [TRIHEXYPHENIDYL]
HepSE_bilirubinemia (Hepatotoxicity [1]; Liver): 0 | HepSE_cholecystitis (Hepatotoxicity [2]; Liver): 0 | HepSE_cholelithiasis (Hepatotoxicity [3]; Liver): 0 | HepSE_cirrhosis (Hepatotoxicity [4]; Liver): 0 | HepSE_elevated liver function tests (Hepatotoxicity [5]; Liver): 0 | HepSE_hepatic failure (Hepatotoxicity [6]; Liver): 0 | HepSE_hepatic necrosis (Hepatotoxicity [7]; Liver): 0 | HepSE_hepatitis (Hepatotoxicity [8]; Liver): 0 | HepSE_hepatomegaly (Hepatotoxicity [9]; Liver): 0 | HepSE_jaundice (Hepatotoxicity [10]; Liver): 0 | HepSE_liver disease (Hepatotoxicity [11]; Liver): 0 | HepSE_liver fatty (Hepatotoxicity [12]; Liver): 0 | HepSE_liver function tests abnormal (Hepatotoxicity [13]; Liver): 0 | HepSE_Combined Scores (Hepatotoxicity [14]; Liver): 0

COc1cc(Cc2cnc(N)nc2N)cc(OC)c1OC [TRIMETHOPRIM]
HepSE_bilirubinemia (Hepatotoxicity [1]; Liver): 0 | HepSE_cholecystitis (Hepatotoxicity [2]; Liver): 0 | HepSE_cholelithiasis (Hepatotoxicity [3]; Liver): 0 | HepSE_cirrhosis (Hepatotoxicity [4]; Liver): 0 | HepSE_elevated liver function tests (Hepatotoxicity [5]; Liver): 0 | HepSE_hepatic failure (Hepatotoxicity [6]; Liver): 0 | HepSE_hepatic necrosis (Hepatotoxicity [7]; Liver): 0 | HepSE_hepatitis (Hepatotoxicity [8]; Liver): 0 | HepSE_hepatomegaly (Hepatotoxicity [9]; Liver): 0 | HepSE_jaundice (Hepatotoxicity [10]; Liver): 1 | HepSE_liver disease (Hepatotoxicity [11]; Liver): 0 | HepSE_liver fatty (Hepatotoxicity [12]; Liver): 0 | HepSE_liver function tests abnormal (Hepatotoxicity [13]; Liver): 0 | HepSE_Combined Scores (Hepatotoxicity [14]; Liver): 1

COc1cc(NCc2ccc3nc(N)nc(N)c3c2C)cc(OC)c1OC [TRIMETREXATE]
HepSE_bilirubinemia (Hepatotoxicity [1]): 0 | HepSE_cholecystitis (Hepatotoxicity [2]): 0 | HepSE_cholelithiasis (Hepatotoxicity [3]): 0 | HepSE_cirrhosis (Hepatotoxicity [4]): 0 | HepSE_elevated liver function tests (Hepatotoxicity [5]): 0 | HepSE_hepatic failure (Hepatotoxicity [6]): 0 | HepSE_hepatic necrosis (Hepatotoxicity [7]): 0 | HepSE_hepatitis (Hepatotoxicity [8]): 0 | HepSE_hepatomegaly (Hepatotoxicity [9]): 0 | HepSE_jaundice (Hepatotoxicity [10]): 0 | HepSE_liver disease (Hepatotoxicity [11]): 0 | HepSE_liver fatty (Hepatotoxicity [12]): 0 | HepSE_liver function tests abnormal (Hepatotoxicity [13]): 0 | HepSE_Combined Scores (Hepatotoxicity [14]): 0

CC(CN(C)C)CN1c2ccccc2CCc2ccccc21 (configuration not stated) [TRIMIPRAMINE]
HepSE_bilirubinemia (Hepatotoxicity [1]): 0 | HepSE_cholecystitis (Hepatotoxicity [2]): 0 | HepSE_cholelithiasis (Hepatotoxicity [3]): 0 | HepSE_cirrhosis (Hepatotoxicity [4]): 0 | HepSE_elevated liver function tests (Hepatotoxicity [5]): 0 | HepSE_hepatic failure (Hepatotoxicity [6]): 0 | HepSE_hepatic necrosis (Hepatotoxicity [7]): 0 | HepSE_hepatitis (Hepatotoxicity [8]): 0 | HepSE_hepatomegaly (Hepatotoxicity [9]): 0 | HepSE_jaundice (Hepatotoxicity [10]): 1 | HepSE_liver disease (Hepatotoxicity [11]): 0 | HepSE_liver fatty (Hepatotoxicity [12]): 0 | HepSE_liver function tests abnormal (Hepatotoxicity [13]): 0 | HepSE_Combined Scores (Hepatotoxicity [14]): 1

Cc1c(C)c2c(c(C)c1O)CCC(C)(COc1ccc(CC3SC(=O)NC3=O)cc1)O2 (configuration not stated) [TROGLITAZONE]
HepSE_bilirubinemia (Hepatotoxicity [1]): 0 | HepSE_cholecystitis (Hepatotoxicity [2]): 0 | HepSE_cholelithiasis (Hepatotoxicity [3]): 0 | HepSE_cirrhosis (Hepatotoxicity [4]): 0 | HepSE_elevated liver function tests (Hepatotoxicity [5]): 0 | HepSE_hepatic failure (Hepatotoxicity [6]): 0 | HepSE_hepatic necrosis (Hepatotoxicity [7]): 0 | HepSE_hepatitis (Hepatotoxicity [8]): 1 | HepSE_hepatomegaly (Hepatotoxicity [9]): 0 | HepSE_jaundice (Hepatotoxicity [10]): 1 | HepSE_liver disease (Hepatotoxicity [11]): 0 | HepSE_liver fatty (Hepatotoxicity [12]): 0 | HepSE_liver function tests abnormal (Hepatotoxicity [13]): 1 | HepSE_Combined Scores (Hepatotoxicity [14]): 3

NC(CO)(CO)CO [TROMETHAMINE]
HepSE_bilirubinemia (Hepatotoxicity [1]; Liver): 0 | HepSE_cholecystitis (Hepatotoxicity [2]; Liver): 0 | HepSE_cholelithiasis (Hepatotoxicity [3]; Liver): 0 | HepSE_cirrhosis (Hepatotoxicity [4]; Liver): 0 | HepSE_elevated liver function tests (Hepatotoxicity [5]; Liver): 0 | HepSE_hepatic failure (Hepatotoxicity [6]; Liver): 0 | HepSE_hepatic necrosis (Hepatotoxicity [7]; Liver): 0 | HepSE_hepatitis (Hepatotoxicity [8]; Liver): 0 | HepSE_hepatomegaly (Hepatotoxicity [9]; Liver): 0 | HepSE_jaundice (Hepatotoxicity [10]; Liver): 0 | HepSE_liver disease (Hepatotoxicity [11]; Liver): 0 | HepSE_liver fatty (Hepatotoxicity [12]; Liver): 0 | HepSE_liver function tests abnormal (Hepatotoxicity [13]; Liver): 0 | HepSE_Combined Scores (Hepatotoxicity [14]; Liver): 0

CCN(Cc1ccncc1)C(=O)C(CO)c1ccccc1 (configuration not stated) [TROPICAMIDE]
HepSE_bilirubinemia (Hepatotoxicity [1]): 0 | HepSE_cholecystitis (Hepatotoxicity [2]): 0 | HepSE_cholelithiasis (Hepatotoxicity [3]): 0 | HepSE_cirrhosis (Hepatotoxicity [4]): 0 | HepSE_elevated liver function tests (Hepatotoxicity [5]; Liver): 0 | HepSE_hepatic failure (Hepatotoxicity [6]): 0 | HepSE_hepatic necrosis (Hepatotoxicity [7]): 0 | HepSE_hepatitis (Hepatotoxicity [8]): 0 | HepSE_hepatomegaly (Hepatotoxicity [9]): 0 | HepSE_jaundice (Hepatotoxicity [10]): 0 | HepSE_liver disease (Hepatotoxicity [11]): 0 | HepSE_liver fatty (Hepatotoxicity [12]): 0 | HepSE_liver function tests abnormal (Hepatotoxicity [13]; Liver): 0 | HepSE_Combined Scores (Hepatotoxicity [14]): 0

O=C(O[C@H]1C[C@H]2CC[C@@H](C1)[N+]21CCCC1)C(O)(c1ccccc1)c1ccccc1.[Cl-] [TROSPIUM CHLORIDE]
HepSE_bilirubinemia (Hepatotoxicity [1]): 0 | HepSE_cholecystitis (Hepatotoxicity [2]): 0 | HepSE_cholelithiasis (Hepatotoxicity [3]): 0 | HepSE_cirrhosis (Hepatotoxicity [4]): 0 | HepSE_elevated liver function tests (Hepatotoxicity [5]): 0 | HepSE_hepatic failure (Hepatotoxicity [6]): 0 | HepSE_hepatic necrosis (Hepatotoxicity [7]): 0 | HepSE_hepatitis (Hepatotoxicity [8]): 0 | HepSE_hepatomegaly (Hepatotoxicity [9]): 0 | HepSE_jaundice (Hepatotoxicity [10]): 0 | HepSE_liver disease (Hepatotoxicity [11]): 0 | HepSE_liver fatty (Hepatotoxicity [12]): 0 | HepSE_liver function tests abnormal (Hepatotoxicity [13]): 0 | HepSE_Combined Scores (Hepatotoxicity [14]): 0

N[C@@H]1[C@H]2CN(c3nc4c(cc3F)c(=O)c(C(=O)O)cn4-c3ccc(F)cc3F)C[C@@H]12 [TROVAFLOXACIN]
HepSE_bilirubinemia (Hepatotoxicity [1]): 1 | HepSE_cholecystitis (Hepatotoxicity [2]): 0 | HepSE_cholelithiasis (Hepatotoxicity [3]): 0 | HepSE_cirrhosis (Hepatotoxicity [4]): 0 | HepSE_elevated liver function tests (Hepatotoxicity [5]): 0 | HepSE_hepatic failure (Hepatotoxicity [6]): 1 | HepSE_hepatic necrosis (Hepatotoxicity [7]): 1 | HepSE_hepatitis (Hepatotoxicity [8]): 1 | HepSE_hepatomegaly (Hepatotoxicity [9]): 0 | HepSE_jaundice (Hepatotoxicity [10]): 1 | HepSE_liver disease (Hepatotoxicity [11]): 0 | HepSE_liver fatty (Hepatotoxicity [12]): 0 | HepSE_liver function tests abnormal (Hepatotoxicity [13]): 0 | HepSE_Combined Scores (Hepatotoxicity [14]): 5

N[C@@H](Cc1c[nH]c2ccccc12)C(=O)O [TRYPTOPHAN]
HepSE_bilirubinemia (Hepatotoxicity [1]): 0 | HepSE_cholecystitis (Hepatotoxicity [2]): 0 | HepSE_cholelithiasis (Hepatotoxicity [3]): 0 | HepSE_cirrhosis (Hepatotoxicity [4]): 0 | HepSE_elevated liver function tests (Hepatotoxicity [5]): 0 | HepSE_hepatic failure (Hepatotoxicity [6]): 0 | HepSE_hepatic necrosis (Hepatotoxicity [7]): 0 | HepSE_hepatitis (Hepatotoxicity [8]): 0 | HepSE_hepatomegaly (Hepatotoxicity [9]): 0 | HepSE_jaundice (Hepatotoxicity [10]): 0 | HepSE_liver disease (Hepatotoxicity [11]): 0 | HepSE_liver fatty (Hepatotoxicity [12]): 0 | HepSE_liver function tests abnormal (Hepatotoxicity [13]): 0 | HepSE_Combined Scores (Hepatotoxicity [14]): 0

CCCCCCCC(=O)CC[C@@H]1[C@@H](C/C=C\CCCC(=O)O)[C@@H](O)C[C@H]1O [UNOPROSTONE]
HepSE_bilirubinemia (Hepatotoxicity [1]): 0 | HepSE_cholecystitis (Hepatotoxicity [2]): 0 | HepSE_cholelithiasis (Hepatotoxicity [3]): 0 | HepSE_cirrhosis (Hepatotoxicity [4]): 0 | HepSE_elevated liver function tests (Hepatotoxicity [5]): 0 | HepSE_hepatic failure (Hepatotoxicity [6]): 0 | HepSE_hepatic necrosis (Hepatotoxicity [7]): 0 | HepSE_hepatitis (Hepatotoxicity [8]): 0 | HepSE_hepatomegaly (Hepatotoxicity [9]): 0 | HepSE_jaundice (Hepatotoxicity [10]): 0 | HepSE_liver disease (Hepatotoxicity [11]): 0 | HepSE_liver fatty (Hepatotoxicity [12]): 0 | HepSE_liver function tests abnormal (Hepatotoxicity [13]): 0 | HepSE_Combined Scores (Hepatotoxicity [14]): 0
